Where a name gives a salt, the structure may show the parent alone.
Each compound was assayed against T1, human hNET (Homo sapiens, UniProt P23975) (assay: Norepinephrine (NE) uptake assay in MDCK-Net6 cells). Details: 1 μM test compound, [3H]NE uptake, read-out: % Inhibition @ 1 μM (hNET).
T1 construct: expressed in transfected cells; host or cells: MDCK-Net6 (MDCK cells, stably transfected)
Assay type: cell-based
Procedure, shortened: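 Radiolabelled NE uptake was counted by scintillation after NaOH lysis, with 1 µM desipramine defining non-specific uptake. EC50 came from a logistic dose-response fit.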

T1 sequence (P23975 whole entry): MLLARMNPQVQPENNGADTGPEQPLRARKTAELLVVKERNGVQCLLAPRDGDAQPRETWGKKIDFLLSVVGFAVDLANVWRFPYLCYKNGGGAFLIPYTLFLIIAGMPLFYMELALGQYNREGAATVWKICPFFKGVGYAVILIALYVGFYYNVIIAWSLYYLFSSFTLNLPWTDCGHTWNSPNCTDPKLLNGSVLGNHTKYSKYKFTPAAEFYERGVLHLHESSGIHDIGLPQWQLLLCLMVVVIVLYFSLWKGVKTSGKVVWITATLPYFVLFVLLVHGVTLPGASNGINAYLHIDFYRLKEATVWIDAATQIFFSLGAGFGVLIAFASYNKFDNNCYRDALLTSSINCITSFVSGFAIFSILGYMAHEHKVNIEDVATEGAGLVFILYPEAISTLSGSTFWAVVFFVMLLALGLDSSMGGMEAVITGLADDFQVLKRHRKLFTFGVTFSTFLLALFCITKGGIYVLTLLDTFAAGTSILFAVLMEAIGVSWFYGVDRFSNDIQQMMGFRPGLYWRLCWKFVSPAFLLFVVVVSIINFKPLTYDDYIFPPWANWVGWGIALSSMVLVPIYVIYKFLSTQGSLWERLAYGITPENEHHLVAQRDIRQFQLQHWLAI

| SMILES | inhibition at 1 µM [%] |
| --- | --- |
| COc1cccc(-c2ccc(C(CN3CCNCC3)C3(O)CCCCC3)cc2)c1 (stereo not shown) [Example 170, 1-[1-(3′-methoxy-1,1′-biphenyl-4-yl)-2-piperazin-1-ylethyl]cyclohexanol dihydrochloride] | 19 |
| C=Cc1cccc(C(CN2CCNCC2)C2(O)CCCCC2)c1 (stereo not shown) [Example 162, 1-[2-piperazin-1-yl-1-(3-vinylphenyl)ethyl]cyclohexanol dihydrochloride] | 78 |
| OC1(C(CN2CCNCC2)c2ccc(-c3cccc(OC(F)(F)F)c3)cc2)CCCCC1 (stereo not shown) [Example 171, 1-{2-piperazin-1-yl-1-[3′-(trifluoromethoxy)-1,1′-biphenyl-4-yl]ethyl}cyclohexanol dihydrochloride] | 32 |
| OC1(C(CN2CCNCC2)c2ccccc2-c2ccccc2)CCCCC1 (stereo not shown) [Example 149, 1-[1-(1,1′-biphenyl-2-yl)-2-piperazin-1-ylethyl]cyclohexanol dihydrochloride] | 31 |
| OC1(C(CN2CCNCC2)c2ccc(-c3cc(Cl)ccc3Cl)cc2)CCCCC1 (stereo not shown) [Example 291, 1-[1-(2′,5′-dichloro-1,1′-biphenyl-4-yl)-2-piperazin-1-ylethyl]cyclohexanol dihydrochloride] | 40 |
| COc1cccc(-c2ccc(C(CN3CCN(C)CC3)C3(O)CCCCC3)cc2)c1 (stereo not shown) [Example 179, 1-[1-(3′-methoxy-1,1′-biphenyl-4-yl)-2-(4-methylpiperazin-1-yl)ethyl]cyclohexanol dihydrochloride] | 27 |
| CN1CCN(CC(c2ccc(OCc3ccccc3)cc2)C2(O)CCC2)CC1 (stereo not shown) [Example 71, 1-[1-[4-(benzyloxy)phenyl]-2-(4-methylpiperazin-1-yl)ethyl]cyclobutanol dihydrochloride] | 25 |
| C[C@@H]1CN(CC(c2ccc(OC(F)(F)F)cc2)C2(O)CCCCC2)C[C@H](C)N1 (stereo partly drawn) [Example 288, 1-{2-[cis-3,5-dimethylpiperazin-1-yl]-1-[4(trifluoromethoxy)phenyl]ethyl}cyclohexanol dihydrochloride] | 77.6 |
| COc1cccc(-c2cccc(C(CN3CCNCC3)C3(O)CCCCC3)c2)c1 (stereo not shown) [Example 138, 1-[1-(3′-methoxy-1,1′-biphenyl-3-yl)-2-piperazin-1-ylethyl]cyclohexanol dihydrochloride] | 44 |
| CCN1CCN(CC(c2ccc(OC(F)(F)F)cc2)C2(O)CCCCC2)CC1 (stereo not shown) [Example 287, 1-{2-(4-ethylpiperazin-1-yl)-1-[4-(trifluoromethoxy)phenyl]ethyl}cyclohexanol dihydrochloride] | 60.8 |
| CN1CCN(CC(c2ccc(-c3ccc(F)cc3)cc2)C2(O)CCCCC2)CC1 (stereo not shown) [Example 180, 1-[1-(4′-fluoro-1,1′-biphenyl-4-yl)-2-(4-methylpiperazin-1-yl)ethyl]cyclohexanol dihydrochloride] | 47 |
| OC1(C(CN2CCNCC2)c2ccc(OC(F)(F)F)cc2)CCCCC1 (stereo not shown) [Example 28, 1-{2-piperazin-1-yl-1-[4-(trifluoromethoxy)phenyl]ethyl}cyclohexanol dihydrochloride] | 80 |
| OC1(C(CN2CCNCC2)c2cccc(-c3cccc(OC(F)(F)F)c3)c2)CCCCC1 (stereo not shown) [Example 248, 1-{2-piperazin-1-yl-1-[3′-(trifluoromethoxy)-1,1′-biphenyl-3-yl]ethyl}cyclohexanol dihydrochloride] | 7 |

The remaining lines, values ahead:

| inhibition at 1 µM [%] | SMILES |
| --- | --- |
| 95.8 | OC1([C@@H](CN2CCNCC2)c2ccc(OCc3ccccc3)c(Cl)c2)CCCCC1 [Example 323, 1-{(1R)-1-[4-(benzyloxy)-3-chlorophenyl]-2-piperazin-1-ylethyl}cyclohexanol dihydrochloride] |
| 92 | C[C@@H]1CCC(O)(C(CN2CCN(C)CC2)c2cccc(OC(F)(F)F)c2)C1 (stereo partly drawn) [Example 395, (3R)-3-methyl-1-{2-(4-methylpiperazin-1-yl)-1-[3-(trifluoromethoxy)phenyl]ethyl}cyclopentanol dihydrochloride] |
| 78 | OC1([C@H](CN2CCN3CCCCC3C2)c2cccc(OC(F)(F)F)c2)CCCCC1 (stereo partly drawn) [Example 371, 1-{(1S)-2-(octahydro-2H-pyrido[1,2-a]pyrazin-2-yl)-1-[3-(trifluoromethoxy)phenyl]ethyl}cyclohexanol dihydrochloride] |
| 91 | CN1CCN(CC(c2ccc(OCc3ccc(C(F)(F)F)cc3)c(F)c2)C2(O)CCCCC2)CC1 (stereo not shown) [Example 416, 1-[1-(3-fluoro-4-{[4-(trifluoromethyl)benzyl]oxy}phenyl)-2-(4-methylpiperazin-1-yl)ethyl]cyclohexanol dihydrochloride] |
| 84 | OC1(C(CN2CCNCC2)c2ccc(OCc3ccc(C(F)(F)F)cc3)c(F)c2)CCCCC1 (stereo not shown) [Example 415, 1-[1-(3-fluoro-4-{[4-(trifluoromethyl)benzyl]oxy}phenyl)-2-piperazin-1-ylethyl]cyclohexanol dihydrochloride] |
| 12 | C[C@@H](Oc1ccc(C(CN2CCN(C)CC2)C2(O)CCCCC2)cc1)c1ccccc1 (stereo partly drawn) [Example 469, 1-(2-(4-methylpiperazin-1-yl)-1-{4-[(1R)-1-phenylethoxy]phenyl}ethyl)cyclohexanol dihydrochloride] |
| 50 | OC1(C(CN2CCCN(Cc3ccccc3)CC2)c2ccc(OC(F)(F)F)cc2)CCCCC1 (stereo not shown) [Example 302, 1-{2-(4-benzyl-1,4-diazepan-1-yl)-1-[4(trifluoromethoxy)phenyl]ethyl}cyclohexanol dihydrochloride] |
| 64 | OC1(C(CN2CCNCC2)c2ccc(OCc3ccc4ccccc4c3)cc2)CCCCC1 (stereo not shown) [Example 432, 1-{1-[4-(2-naphthylmethoxy)phenyl]-2-piperazin-1-ylethyl}cyclohexanol] |
| 79 | CCC1CN(C[C@H](c2cccc(OC(F)(F)F)c2)C2(O)CCCCC2)CCN1 (stereo partly drawn) [Example 350, 1-{(1S)-2-(3-ethylpiperazin-1-yl)-1-[3-(trifluoromethoxy)phenyl]ethyl}cyclohexanol dihydrochloride] |
| 61 | CC[C@H]1CN(C[C@H](c2cccc(OC(F)(F)F)c2)C2(O)CCCCC2)CCN1C [Example 351, 1-{(1S)-2-[(3S)-3-ethyl-4-methylpiperazin-1-yl]-1-[3-(trifluoromethoxy)phenyl]ethyl}cyclohexanol dihydrochloride] |
| 98.4 | OC1([C@H](CN2CCNCC2)c2ccc(OCc3ccccc3)c(Cl)c2)CCCCC1 [Example 324, 1-{(1S)-1-[4-(benzyloxy)-3-chlorophenyl]-2-piperazin-1-ylethyl}cyclohexanol dihydrochloride] |
| 80 | OC1(C(CN2CCNCC2)c2ccc(OCc3ccc(Br)cc3F)c(Cl)c2)CCCCC1 (stereo not shown) [Example 425, 1-(1-{4-[(4-bromo-2-fluorobenzyl)oxy]-3-chlorophenyl}-2-piperazin-1-ylethyl)cyclohexanol dihydrochloride] |
| 57 | COc1cc(C(CN2CCNCC2)C2(O)CCCCC2)ccc1OCc1ccccc1 (stereo not shown) [Example 442, 1-{1-[4-(benzyloxy)-3-methoxyphenyl]-2-piperazin-1-ylethyl}cyclohexanol dihydrochloride] |
| 86.2 | OC1(C(CN2CCNCC2)c2cccc(Oc3ccccc3)c2)CCCCC1 (stereo not shown) [Example 311, 1-[1-(3-phenoxyphenyl)-2-piperazin-1-ylethy]cyclohexanol dihydrochloride] |
| 49 | CN1CCN(CC(c2ccc(OCc3ccc4ccccc4c3)cc2)C2(O)CCCCC2)CC1 (stereo not shown) [Example 433, 1-{2-(4-methylpiperazin-1-yl)-1-[4-(2-naphthylmethoxy)phenyl]ethyl}cyclohexanol] |
| 85 | CN1CCN(CC(c2ccc(OCc3ccc(Br)cc3F)cc2)C2(O)CCCCC2)CC1 (stereo not shown) [Example 435, 1-[1-{4-[(4-bromo-2-fluorobenzyl)oxy]phenyl}-2-(4-methylpiperazin-1-yl)ethyl]cyclohexanol dihydrochloride] |
| 46 | OC1(C(CN2CCNCC2)c2ccc(OCc3ccc(C(F)(F)F)cc3)c(Cl)c2)CCCCC1 (stereo not shown) [Example 419, 1-[1-(3-chloro-4-{[4-(trifluoromethyl)benzyl]oxy}phenyl)-2-piperazin-1-ylethyl]cyclohexanol dihydrochloride] |
| 16 | OC1(C(CN2CCNCC2)c2ccc(Oc3cccc4ccccc34)cc2)CCCCC1 (stereo not shown) [Example 389, 1-{1-[4-(1-naphthyloxy)phenyl]-2-piperazin-1-ylethyl}cyclohexanol dihydrochloride] |
| 69 | CN1CCN(CC(c2ccc(OCCc3ccc(F)cc3)cc2)C2(O)CCCCC2)CC1 (stereo not shown) [Example 463, 1-[1-{4-[2-(4-fluorophenyl)ethoxy]phenyl}-2-(4-methylpiperazin-1-yl)ethyl]cyclohexanol dihydrochloride] |
| 13 | CN1CCN(CC(c2ccc(-c3ccc(Cl)c(Cl)c3)cc2)C2(O)CCC2)CC1 (stereo not shown) [Example 296, 1-[1-(3′,4′-dichloro-1,1′-biphenyl-4-yl)-2-(4-methylpiperazin-1-yl)ethyl]cyclobutanol dihydrochloride] |

Same assay, conditions: 10 μM test compound (stated in the cell), [3H]NE uptake

| inhibition at 10 µM [%] | SMILES |
| --- | --- |
| 27.2 | CN1CCN(CC(c2ccc(-c3cccc(Cl)c3)cc2)C2(O)CCC2)CC1 (stereo not shown) [Example 294, 1-[1-(3′-chloro-1,1′-biphenyl-4-yl)-2-(4-methylpiperazin-1-yl)ethyl]cyclobutanol dihydrochloride] |
| 72.8 | COc1ccc(C(CN2CCN(C)CC2)C2(O)CCCCC2)cc1-c1cccc(OC(F)(F)F)c1 (stereo not shown) [Example 256, 1-[1-[6-methoxy-3′-(trifluoromethoxy)-1,1′-biphenyl-3-yl]-2-(4-methylpiperazin-1-yl)ethyl]cyclohexanol dihydrochloride] |

Same assay, conditions: MDCK-Net6, read-out: % Inhibition @ 1 μM (hNET), 1 μM test compound, [3H]NE uptake

| SMILES | inhibition at 1 µM [%] |
| --- | --- |
| CN1CCN(C[C@H](c2cccc(OC(F)(F)F)c2)C2(O)CCCCC2)CC1 [Example 245, 1-{(1S)-2-(4-methylpiperazin-1-yl)-1-[3-(trifluoromethoxy)phenyl]ethyl}cyclohexanol dihydrochloride] | 88 |

Same assay, conditions: [3H]NE uptake, test range 1 to 10,000 nM

| EC50 [nM] | SMILES |
| --- | --- |
| 410 | C=Cc1cccc(C(CN2CCNCC2)C2(O)CCCCC2)c1 (stereo not shown) [Example 162, 1-[2-piperazin-1-yl-1-(3-vinylphenyl)ethyl]cyclohexanol dihydrochloride] |
